Experimental findings from article PMC2856764 (Human immunology, 2010) are described below.

In experiment [1] the test system is CD8+ enriched human donor PBMC. Type of experiment: cell-based.
The next experiment deals with HLA-A*0301 (Homo sapiens, UniProt P04439). As to the kind of experiment: biochemical. Type of experiment: binding.
In the next experiment the target is HLA-A*1101 (Homo sapiens, UniProt P04439, A114D/D185E/E176A/F33Y/L180Q/S129P/T187R). As to the kind of experiment: biochemical. Type of experiment: binding.
The target in the next experiment is HLA-A*3101 (Homo sapiens, UniProt P04439, A270S/D185E/E176V/E277Q/F33T/G231S/G80R/H175R/I121M/I218V/I322F/K168Q/L300P/L318F/M331R/P217A/Q94H/R138Q/T323A/T345S/T97I/V358M). As to the kind of experiment: biochemical. Type of experiment: binding.
The target in the next experiment is HLA-A*3301 (Homo sapiens, UniProt P04439, A270S/D185E/E176V/E277Q/E87N/F33T/G231S/H175R/I121M/I218V/I322F/K168Q/K210R/L300P/L318F/M331R/P217A/Q86R/Q94H/R138Q/T323A/T345S/T97I/V358M/Y195H). In words: biochemical. Type of experiment: binding.
For a further experiment, the target named is HLA-A*6801 (Homo sapiens, UniProt P04439, A269V/D185E/E176V/E277Q/E87N/F33Y/G231S/I121M/I166T/I218V/L180W/L300P/L318F/N151K/P208A/P217A/Q86R/R169H/T345S). In words: biochemical. Type of experiment: binding.
Another experiment deals with HLA-A*0201 (Homo sapiens, UniProt P04439, D140Y/D185E/D98H/E176V/E277Q/G131W/G231S/I119V/I121R/I166T/I218V/L300P/L318F/N151K/N90K/P208A/P217A/Q86G/Q94H/R138H/R169H/T345S). In words: biochemical. Type of experiment: binding.
Another experiment addresses HLA-A*0202 (Homo sapiens, UniProt P04439, D140Y/D185E/D98H/E176V/E277Q/G131W/G231S/I119L/I121R/I166T/I218V/L180W/L300P/L318F/N151K/N90K/P208A/P217A/Q67R/Q86G/Q94H/R138H/R169H/T345S). As to the kind of experiment: biochemical. Type of experiment: binding.
For the next experiment, the target named is HLA-A*0203 (Homo sapiens, UniProt P04439, A173T/D140Y/D185E/D98H/E277Q/G131W/G231S/I119V/I121R/I166T/I218V/L180W/L300P/L318F/N151K/N90K/P208A/P217A/Q86G/Q94H/R138H/R169H/T345S). In words: biochemical. Type of experiment: binding.
A further experiment concerns the target HLA-A*0206 (Homo sapiens, UniProt P04439, D140Y/D185E/D98H/E176V/E277Q/F33Y/G131W/G231S/I119V/I121R/I166T/I218V/L300P/L318F/N151K/N90K/P208A/P217A/Q86G/Q94H/R138H/R169H/T345S). In words: biochemical. Type of experiment: binding.
In a further experiment the target is HLA-A*6802 (Homo sapiens, UniProt P04439, A269V/D140Y/D185E/E176V/E277Q/E87N/F33Y/G231S/I121R/I166T/I218V/L180W/L300P/L318F/N151K/P208A/P217A/Q86R/R138H/R169H/S129P/T345S/V36M). In words: biochemical. Type of experiment: binding.
In a further experiment the target is HLA-B*1801 (Homo sapiens, UniProt P01889, A329T/A93T/A95T/C349S/D201E/D54G/D98Y/E176V/E187T/E204Q/E69T/K202T/Q94N/R155S/R180L/S121R/V306I/Y140S/Y195H/Y33H/Y91S). As to the kind of experiment: biochemical. Type of experiment: binding.
A further experiment addresses HLA-B*4001 (Homo sapiens, UniProt P01889, A65T/A93T/A95T/D138N/D98Y/E176V/E69K/N87E/Q56L/Q94N/R180L/S121R/S35A/S48T/T167S/V36M/W171L/Y33H/Y91S). In words: biochemical. Type of experiment: binding.
The target in the next experiment is HLA-B*4002 (Homo sapiens, UniProt P01889, A65T/A93T/A95T/D138N/D201E/D98Y/E176V/E204Q/E69K/K202T/N87E/Q56L/Q94N/R180L/S48T/Y33H/Y91S). As to the kind of experiment: biochemical. Type of experiment: binding.
For a further experiment, the target named is HLA-B*4402 (Homo sapiens, UniProt P01889, A223V/A65T/A93T/A95T/D201E/D98Y/E176V/E187L/E204Q/E69K/G107R/H137Y/K202T/L105A/L119I/N104T/N87E/Q56L/Q94N/R106L/R155S/R180D/S101N/S121R/S35A/S48T/T118I/V36M/W191S/Y140D/Y91S). In words: biochemical. Type of experiment: binding.
For another experiment, the target named is HLA-B*4403 (Homo sapiens, UniProt P01889, A223V/A65T/A93T/A95T/D201E/D98Y/E176V/E187L/E204Q/E69K/G107R/H137Y/K202T/L105A/L119I/N104T/N87E/Q56L/Q94N/R106L/R155S/R180L/S101N/S121R/S35A/S48T/T118I/V36M/W191S/Y140D/Y91S). As to the kind of experiment: biochemical. Type of experiment: binding.
A further experiment has as its target HLA-B*4501 (Homo sapiens, UniProt P01889, A329T/A65T/A93T/A95T/C349S/D138N/D201E/D98Y/E176V/E187L/E204Q/E69K/H137Y/K202T/L119W/N87E/Q56L/Q94N/R155S/R180D/S121R/S35A/S48T/V127L/V306I/V36M/W191S/Y140L/Y33H/Y91S). As to the kind of experiment: biochemical. Type of experiment: binding.

One may read the IC50 as the concentration at which inhibition is half-maximal. Read a low IC50 as greater potency.

Ends that are not written are not given here. Peptide text beside a SMILES is read from it. Bounds are passed on as bounds.

Turning to `CC(C)C[C@H](NC(=O)[C@H](CS)NC(=O)[C@H](CO)NC(=O)[C@@H](N)CCCCN)C(=O)N1CCC[C@H]1C(=O)N[C@@H](C)C(=O)N[C@@H](CS)C(=O)N[C@H](C(=O)N[C@@H](Cc1ccc(O)cc1)C(=O)O)C(C)C` [NP.273] (H-KSCLPACVY-OH; N-terminus and C-terminus assumed), in [1], the IFN-γ responses is given as 590; 1200; 300 SFC/10^6 CD8^+ cells and the peptide-specific recall response is “Significant”.
Take `CC(C)C[C@H](NC(=O)CNC(=O)[C@H](Cc1ccc(O)cc1)NC(=O)[C@@H](NC(=O)[C@H](CS)NC(=O)[C@H](C)NC(=O)[C@@H]1CCCN1C(=O)[C@H](CC(C)C)NC(=O)[C@@H](N)CS)C(C)C)C(=O)O` [NP.275] (H-CLPACVYGL-OH; N-terminus and C-terminus assumed): in [1], the IFN-γ responses is listed as 350; 986; 2200 SFC/10^6 CD8^+ cells and the peptide-specific recall response is “responses induced”.
ASCMGLIYNR [M1.125]: the IC50 at HLA-A*0301 is 816 nM; on HLA-A*1101, 32 nM; against HLA-A*3101, 7 nM; at HLA-A*3301 it was 445 nM; on HLA-A*6801 it was 391 nM.
In the case of FQGRGVFEL [NP.458], the IC50 at HLA-A*0201 is 143 nM; against HLA-A*0202 it was 7 nM; against HLA-A*0203, 307 nM; against HLA-A*0206, 7 nM; against HLA-A*6802 it was greater than 10000 nM.
Take FQVDCFLWHV [NS1.9]: the half-inhibitory concentration (IC50) turned out to be 4 nM against HLA-A*0201; 4 nM against HLA-A*0202; 3 nM against HLA-A*0203; 1 nM at HLA-A*0206; 219 nM on HLA-A*6802.
Take GERQNATEI [NP.17]: the IC50 against HLA-B*1801 was greater than 10000 nM; against HLA-B*4001, 199 nM; at HLA-B*4002, 53 nM; on HLA-B*4402, greater than 10000 nM; on HLA-B*4403 it was greater than 10000 nM; against HLA-B*4501, 304 nM.
Turning to GLFGAIAGFI [HA.345], the IC50 was 41 nM on HLA-A*0201; 0.4 nM against HLA-A*0202; 1 nM against HLA-A*0203; 2540 nM at HLA-A*0206; 1530 nM at HLA-A*6802.
As for GTFEFTSFFY [PB1.488], the 50% inhibitory concentration (IC50) stood at 16 nM on HLA-A*0301; 1 nM against HLA-A*1101; 242 nM at HLA-A*3101; 5410 nM against HLA-A*3301; 100 nM at HLA-A*6801.
Consider KFLPDLYDYK [PA.104], for which the IC50 was 255 nM at HLA-A*0301; 22 nM against HLA-A*1101; 2410 nM against HLA-A*3101; greater than 10000 nM at HLA-A*3301; 507 nM at HLA-A*6801.
With KLVGINMSKK [PB1.471], the half-maximal inhibitory concentration (IC50) against HLA-A*0301 is 14 nM; on HLA-A*1101, 315 nM; at HLA-A*3101 it was 518 nM; against HLA-A*3301 it was greater than 10000 nM; against HLA-A*6801 it was 1610 nM.
On to NMLSTVLGV [PB1.413], for which the 50% inhibitory concentration (IC50) on HLA-A*0201 came out at 4 nM; against HLA-A*0202 it was 5 nM; on HLA-A*0203, 11 nM; against HLA-A*0206 it was 3 nM; against HLA-A*6802, 1060 nM.
Consider QEIRTFSFQL [NS2.184], for which the IC50 stood at 515 nM against HLA-B*1801; 135 nM on HLA-B*4001; 68 nM against HLA-B*4002; 102 nM against HLA-B*4402; 431 nM against HLA-B*4403; 380 nM against HLA-B*4501.
For RLFFKCIYRR [M2.45], the 50% inhibitory concentration (IC50) against HLA-A*0301 amounted to 135 nM; on HLA-A*1101, 294 nM; against HLA-A*3101, 5 nM; against HLA-A*3301 it was 238 nM; against HLA-A*6801, 88 nM.
Turning to SEQAAEAMEV [M1.196], the half-maximal inhibitory concentration (IC50) at HLA-B*1801 came out at 1900 nM; against HLA-B*4001 it was 2670 nM; against HLA-B*4002, 85 nM; against HLA-B*4402, 2640 nM; against HLA-B*4403 it was 7670 nM; against HLA-B*4501, 35 nM.
Regarding SFSFGGFTFK [PB2.322], the 50% inhibitory concentration (IC50) worked out at 74 nM on HLA-A*0301; 7 nM on HLA-A*1101; 19 nM on HLA-A*3101; 85 nM at HLA-A*3301; 60 nM against HLA-A*6801.
SVQPTFSVQR [NP.407]: the IC50 is greater than 10000 nM against HLA-A*0301; 37 nM on HLA-A*1101; 21 nM at HLA-A*3101; 181 nM on HLA-A*3301; 84 nM against HLA-A*6801.
In the case of SVQRNLPFER [NP.413], the 50% inhibitory concentration (IC50) is greater than 10000 nM against HLA-A*0301; 411 nM against HLA-A*1101; 104 nM against HLA-A*3101; 321 nM against HLA-A*3301; 19 nM against HLA-A*6801.
For the compound TEVETYVLSI [M1.5], the IC50 against HLA-B*1801 was 136 nM; at HLA-B*4001, 133 nM; against HLA-B*4002, 195 nM; against HLA-B*4402, 6880 nM; at HLA-B*4403, 247 nM; against HLA-B*4501, 504 nM.
In the case of VLRGFLILGK [PB2.690], the IC50 was 10 nM at HLA-A*0301; 460 nM on HLA-A*1101; 85 nM against HLA-A*3101; greater than 10000 nM against HLA-A*3301; 1160 nM at HLA-A*6801.
